For assay [1], the target named is T1, VMAT-2 (Rattus norvegicus, UniProt Q01827).
T1 construct: from tissue; host or cells: rat brain, 6 mm coronal slice incorporating the striatum, homogenate
Kind of assay: [3H] Dihydrotetrabenazine binding assay for VMAT-2 (Assay B). The settings on record: [3H] dihydrotetrabenazine 5 nM, rat brain homogenate, competition binding. The text has this: Screen for VMAT-2 binding activity using a [^3H] Dihydrotetrabenazine binding Assay
Dihydrotetrabenazine is a very potent and selective inhibitor of VMAT-2, and binds with high affinity (nM range) to this vesicular transporter. [^3H] Dihydrotetrabenazine has been successfully used for many years as a radioligand to label VMAT-2 in human, bovine and rodent brain (e.g. Scherman et al. J. Neurochem. 50, 1131-1136 (1988); Near et al. Mol. Pharmacol. 30, 252-257 (1986); Kilbourn et al. Eur. J. Pharmacol. 278, 249-252 (1995); and Zucker et al. Life Sci. 69, 2311-2317 (2001)).
Charles River CD-1 rats were euthanized by decapitation and the brains dissected free and placed in ice cold PBS. The chilled brain was placed in a coronal brain matrix (Activational Systems, Inc) with 1 mm intervals. Single edge razor blades were inserted such that a 6 mm slice incorporating the striatum was removed. The tissue was weighed and placed in an ice-cold hand homogenizer, 10 volumes of KBS-EDTA (137 mM KCl, 3 mM NaCl, 8 mM K2HPO4, 1.5 mM NaH2PO4, 1 mM EDTA, pH 8.0) were added and the tissue homogenized with 10 strokes (maintaining on ice). Aliquots were placed into 500 μl microfuge tubes and then stored at −80° C. for later assays. A fresh aliquot was taken for protein assay. Protein concentrations were determined using BCA Protein Assay (Pierce Chemical) with bovine serum albumin as the standard. For VMAT2 assay, aliquots were thawed and placed on ice, and diluted with KBS-EDTA for a final protein concentration of 1 mg/ml.
Whatman GF/C filters (Acros) were presoaked with PBS/0.1% polyethylenimine at room temperature and then placed on a 48 place cell harvester (Brandel). Harvester was loaded with labeled tubes (12×75 mm) in the test tube rack. Into the tubes were placed 10 μl of the compound dilutions to their respective triplicate tubes and 1 μl of 10 mM TBZ added to the tubes used for non-specific binding measurements. Into each tube was then placed 0.5 ml of a 10 nM [^3H] dihydrotetrabenazine (DTBZ) dilution (American Radiolabeled Chemicals) in KBS-EDTA, the tubes were vortexed, and then 0.5 ml of the 1 mg/ml rat forebrain tissue homogenate solution was added into all tubes. Each tube was vortexed briefly and then incubated at room temperature for 30 minute.
Final concentrations of samples were 500 μg protein, 5 nM [3H]DTBZ; 10 μM TBZ (for nonspecific tubes) in 1 ml total volume. […] Filter circles were placed in scintillation vials and 10 ml of Universol (ICN) was added, samples incubated overnight and then counted on a Packard Tri-Carb 1600 scintillation counter.
Competition binding isotherms were analyzed with the use of computer-assisted nonlinear curve-fitting (LIGAND program) using both one and two site models.

For assay [2], the target named is T2, Dopamine D2S Receptor (Homo sapiens, UniProt P14416).
T2 construct: expressed in transfected cells; host or cells: CHO cells
T2 sequence (P14416 1-414 isoform P14416-2): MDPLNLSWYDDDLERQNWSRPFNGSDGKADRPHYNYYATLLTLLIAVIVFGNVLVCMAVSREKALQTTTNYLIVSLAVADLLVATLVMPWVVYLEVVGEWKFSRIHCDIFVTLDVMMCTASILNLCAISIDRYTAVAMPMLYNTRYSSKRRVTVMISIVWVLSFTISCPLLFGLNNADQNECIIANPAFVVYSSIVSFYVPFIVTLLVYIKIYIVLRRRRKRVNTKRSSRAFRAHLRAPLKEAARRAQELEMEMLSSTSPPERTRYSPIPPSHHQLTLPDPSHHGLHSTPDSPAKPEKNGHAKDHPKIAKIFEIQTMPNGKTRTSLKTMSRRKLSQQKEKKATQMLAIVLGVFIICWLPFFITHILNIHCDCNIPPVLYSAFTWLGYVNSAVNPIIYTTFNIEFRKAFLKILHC
Put plainly: Radioligand binding, [3H] Spiperone. Conditions: compound at 10 μM. As to the method: (§1) Compounds of the invention were subjected to specific binding assays to test their ability to bind to the receptors and transporter proteins described below.
(f) Dopamine D2S Receptor:
• Reference: Grandy et al., Proc. Natl. Acad. Sci. USA, 86:9762-9766 (1989) • Source: Human recombinant CHO cells • Ligand: 0.16 nM [^3H]

Assay [3] has as its target T3, Dopamine D4.2 Receptor (Homo sapiens, UniProt P21917, DEL265-296).
T3 construct: expressed in transfected cells; host or cells: CHO-K1 cells
T3 sequence (P21917 with tags, fused parts or gaps DEL265-296): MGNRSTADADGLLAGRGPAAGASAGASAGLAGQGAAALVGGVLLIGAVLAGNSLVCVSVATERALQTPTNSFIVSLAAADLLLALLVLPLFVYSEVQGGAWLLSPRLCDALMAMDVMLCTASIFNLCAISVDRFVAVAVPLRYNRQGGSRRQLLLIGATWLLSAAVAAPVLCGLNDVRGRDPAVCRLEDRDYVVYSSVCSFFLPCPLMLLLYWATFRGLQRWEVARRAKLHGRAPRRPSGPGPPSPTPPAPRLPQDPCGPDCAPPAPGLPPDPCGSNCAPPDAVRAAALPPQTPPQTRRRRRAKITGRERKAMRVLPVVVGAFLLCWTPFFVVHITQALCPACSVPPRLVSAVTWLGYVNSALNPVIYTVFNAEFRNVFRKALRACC
Put plainly: Radioligand binding, [3H] Spiperone. Conditions: compound at 10 μM. Here is the method:
as §1
(h) Dopamine D4.2 Receptor:
• Reference: Van Tol et al., Nature, 350:610-614 (1991) • Source: Human recombinant CHO-K1 cells • Ligand: 0.5 nM [^3H]

The subject of assay [4] is Dopamine D4.7 Receptor. Put plainly: Radioligand binding, [3H] Spiperone. Further details: species or system Human. Conditions: compound at 10 μM. Here is the method: as §1
(j) Dopamine D4.7 Receptor:
• Reference: Van Tol et al., Nature, 350:610-614 (1991) • Source: Human recombinant CHO-K1 cells • Ligand: 1.5 nM [^3H]

Assay [5] deals with Imidazoline I2 (Central) Receptor. Put plainly: Radioligand binding, [3H] Idazoxan, cerebral cortex. Further details: species or system Wistar rat. Conditions: compound at 10 μM. Here is the method:
as §1
(k) Imidazoline I2 (Central) Receptor:
• Reference: Brown et al., Brit. J. Pharmacol., 99:803-809, (1990) • Source: Wistar rat cerebral cortex • Ligand: 2 nM [^3H]

In assay [6] the target is T4, Sigma σ1 Receptor (Homo sapiens, UniProt Q99720).
T4 construct: Source: Human jurkat cells; endogenous in cells; host or cells: Jurkat cells
T4 sequence (Q99720 whole entry): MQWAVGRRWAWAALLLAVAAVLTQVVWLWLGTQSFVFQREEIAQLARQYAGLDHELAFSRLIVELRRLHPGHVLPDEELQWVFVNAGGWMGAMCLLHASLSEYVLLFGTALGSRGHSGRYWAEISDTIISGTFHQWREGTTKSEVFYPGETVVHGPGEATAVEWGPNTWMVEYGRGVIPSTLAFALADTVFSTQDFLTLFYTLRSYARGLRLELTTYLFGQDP
Kind of assay: Radioligand binding, [3H] Haloperidol, jurkat cells. The settings on record: compound at 10 μM. Here is the method: as §1
• Reference: Ganaphthy et al., Pharmacol. Exp. Ther., 289:251-260, (1999) • Source: Human jurkat cells • Ligand: 8 nM [3H]

Structures are written as SMILES.

T1 sequence (Q01827 whole entry): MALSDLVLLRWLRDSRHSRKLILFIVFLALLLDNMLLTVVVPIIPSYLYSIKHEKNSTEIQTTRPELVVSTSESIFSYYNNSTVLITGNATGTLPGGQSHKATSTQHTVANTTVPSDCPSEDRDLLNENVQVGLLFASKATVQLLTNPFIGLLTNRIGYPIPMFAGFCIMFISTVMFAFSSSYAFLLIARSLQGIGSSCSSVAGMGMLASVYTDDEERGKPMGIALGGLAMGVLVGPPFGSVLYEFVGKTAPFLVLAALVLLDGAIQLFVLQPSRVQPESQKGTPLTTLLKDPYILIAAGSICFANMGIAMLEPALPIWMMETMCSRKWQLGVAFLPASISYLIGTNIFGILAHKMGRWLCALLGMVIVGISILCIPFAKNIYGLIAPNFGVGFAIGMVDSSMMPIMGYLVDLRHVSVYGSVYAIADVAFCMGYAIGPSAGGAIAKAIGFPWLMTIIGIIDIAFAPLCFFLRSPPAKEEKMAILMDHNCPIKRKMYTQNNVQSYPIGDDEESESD

What is called Ki is the dissociation constant of the complex between target and ligand, obtained from inhibition or displacement. Read a high Ki as a looser hold on the target. In assay [1], `COc1cc2c(cc1O)[C@@H]1C[C@@H](O)[C@H](CC(C)C)CN1CC2` (single isomer, unassigned) [(+)-10-desmethyl-γ-dihydrotetrabenazine] yielded a Bmax of 0.174 ± 0.035 fmol/µg and a Ki of 0.451 µM. Also, the “% inhibition, (f) D2S Receptor” value in assay [2] stood at 63%. In addition, the “% inhibition, (h) D4.2 Receptor” value in assay [3] came to 55%. Besides, the “% inhibition, (j) D4.7 Receptor” value in assay [4] is recorded as 25%. In addition, the “% inhibition, (k) I2 Receptor (central)” value in assay [5] is 24%. The “% inhibition, (m) σ1 Receptor” value in assay [6] is recorded as 83%.

In assay [1], `COc1cc2c(cc1O)[C@@H]1C[C@@H](O)[C@H](CC(C)C)CN1CC2` (single isomer, unassigned) [(−)-10-desmethyl-γ-dihydrotetrabenazine] gave a Bmax of 0.101 ± 0.009 fmol/µg and a Ki of 0.00182 µM. In addition, the “% inhibition, (f) D2S Receptor” value in assay [2] came out at 98%. Besides, in assay [3], the “% inhibition, (h) D4.2 Receptor” value worked out at 90%. For the same compound, in assay [4], the “% inhibition, (j) D4.7 Receptor” value is listed as 87%. The “% inhibition, (k) I2 Receptor (central)” value in assay [5] came out at 66%. For the same compound, the “% inhibition, (m) σ1 Receptor” value in assay [6] was 55%.

The values are drawn from patent US20100087475A1, “PHARMACEUTICAL COMPOUNDS” (Biovali Laboratories International (Barbados) S.R.L., priority 2008, published 2010).
